Where two headings read alike, the source gives them in different places.
What was measured:
[1] = target: T1, human androgen receptor (Homo sapiens, UniProt P10275); assay: Investigation of antagonist effect on androgen receptor (reporter gene assay, 11A11B2 cells, with DHT); type: cell-based
T1 construct: expressed in transfected cells
T1 sequence (P10275 1-920): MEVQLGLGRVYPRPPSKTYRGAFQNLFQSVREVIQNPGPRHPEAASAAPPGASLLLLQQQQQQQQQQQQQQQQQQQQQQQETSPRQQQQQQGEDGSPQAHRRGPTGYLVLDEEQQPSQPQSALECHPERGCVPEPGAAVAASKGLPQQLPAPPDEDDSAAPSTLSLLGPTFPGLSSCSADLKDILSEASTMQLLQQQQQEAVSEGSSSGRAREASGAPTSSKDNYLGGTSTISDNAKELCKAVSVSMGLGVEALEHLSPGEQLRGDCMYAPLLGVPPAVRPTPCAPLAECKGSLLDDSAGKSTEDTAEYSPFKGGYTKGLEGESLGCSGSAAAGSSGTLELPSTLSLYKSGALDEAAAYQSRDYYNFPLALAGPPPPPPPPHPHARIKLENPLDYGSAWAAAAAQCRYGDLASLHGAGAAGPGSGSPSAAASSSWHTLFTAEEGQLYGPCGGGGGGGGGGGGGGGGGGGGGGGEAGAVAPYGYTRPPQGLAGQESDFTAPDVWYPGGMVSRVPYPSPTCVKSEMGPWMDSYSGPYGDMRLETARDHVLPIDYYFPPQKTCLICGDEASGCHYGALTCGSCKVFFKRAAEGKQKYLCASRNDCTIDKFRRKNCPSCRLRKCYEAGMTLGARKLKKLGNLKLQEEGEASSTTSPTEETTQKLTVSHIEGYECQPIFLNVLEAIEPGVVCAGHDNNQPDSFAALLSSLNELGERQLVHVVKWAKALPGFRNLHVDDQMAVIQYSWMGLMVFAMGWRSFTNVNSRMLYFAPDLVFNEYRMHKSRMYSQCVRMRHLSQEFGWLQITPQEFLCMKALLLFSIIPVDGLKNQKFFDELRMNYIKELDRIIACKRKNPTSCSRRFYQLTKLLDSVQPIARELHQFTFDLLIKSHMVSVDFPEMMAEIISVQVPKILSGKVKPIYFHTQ
Protocol: (§1) HeLa cells (purchased from Dai-Nippon Seiyaku K. K.) were cultured overnight in Dulbecco's Modified Eagle Medium containing no phenol red, but containing 3% charcoal-treated fetal bovine serum (hereafter referred to as DCC-FBS) (this medium is hereafter referred to as phenol-red-free DMEM). An MMTV-Luc-Hyg vector (reporter plasmid with mouse mammary tumor virus long terminal repeat, containing an androgen response element and a hygromycin resistance gene: a vector obtained by substituting a chloramphenicol acetyl transferease gene of a GM-CAT vector (A.T.C.C No. 67282) purchased from the A.T.C.C. with the firefly luciferase gene, and inserting a hygromycin resistance gene as a drug resistant gene), and pSG5-hAR-neo (human androgen receptor expression vector: a vector having an androgen receptor gene under the control of the SV40 promoter, and having a neomycin resistance gene inserted as a drug resistance gene) were transfected into the HeLa cells using an FuGENE™ 6 Transfection Reagent (obtained from Roche).
(§2) The clone cells thus obtained (11A11B2 cells) were maintained and propagated using DMEM containing 400 μg/mL neomycin, 200 μg/mL hygromycin and 10% FBS, and were propagated using phenol-red-free DMEM containing 10% DCC-FBS three to four days prior to the performance of an androgen receptor reporter gene assay.
The 11A11B2 cells were inoculated in a white clear-bottomed 96-well microplate (COSTAR) so that the cell concentration was 1.0×10^4/well, and were cultured overnight. The assay medium containing DHT was added so that the final concentration of DHT was 0.1 nmol/L, and samples of the assay medium containing the compounds of the Examples or compounds of the Comparative Examples were added so that the final concentrations of the compounds of the Examples or compounds of the Comparative Examples were 1, 10, 100, 1,000 and 10,000 nmol/L, respectively. After culturing for 48, hours, the transcription activity values were measured. The transcription activity was measured using a Bright-Glo™ Luciferase Assay System (Promega).
(§3) The transcription activity rates of the compounds of the Examples were calculated from the transcription activity measured by the abovementioned method, with the transcription activity value obtained at 0.1 nmol/L DHT taken as 100%, and the transcription activity value in the case of the assay, medium alone taken as 0%.

[2] = target: T1, human androgen receptor; assay: Measurement of agonist effect on androgen receptor (reporter gene assay, 11A11B2 cells); type: cell-based; details: compound concentration showing a transcription activity of 5% (0.1 nmol/L DHT = 100%, assay medium alone = 0%), 48 hours
Protocol: as §1, §2
The 11A11B2 cells were inoculated in a white clear-bottomed 96-well microplate (COSTAR) so that the cell concentration was 1.0×10^4/well, and were cultured overnight using phenol-red-free DMEM containing 3% DCC-FBS (hereafter referred to as the assay medium). Samples of the assay medium containing the compounds of the Examples and compounds of the Comparative Examples were added so that the final concentrations of the compounds of the Examples and compounds of the Comparative Examples were 1, 10, 100, 1,000 and 10,000 nmol/L), and the cells were cultured for 48 hours, after which the transcription activity value was measured. The transcription activity was measured using a Bright-Glo™ Luciferase Assay System (Promega).
as §3, with “assay” for “assay,”, “0%. The compound concentration showing a transcription activity of 5% (EC5 value) was calculated from a linear equation for two points on either side of 5%.” for “0%.”

[3] = with 0.1 nmol/L DHT, transcription activity rate of Test Example 1 subtracted, 11A11B2 cells, 48 hours, read-out: IC50

Compound | IC50 [1] | EC5 [2] | IC50 [1, 3]
CC1(C)C(=O)N(c2ccc(C#N)c(C(F)(F)F)c2)C(=O)N1c1ccc(Cl)c(NC(=O)OCCCCO)c1 [Example 33, {2-chloro-5-[3-(4-cyano-3-trifluoromethylphenyl)-5,5-dimethyl-2,4-dioxoimidazolidin-1-yl]phenyl}-carbamic acid 4-hydroxybutyl ester] | 300 nM | >10 µM | 
CC1(C)C(=O)N(c2ccc(C#N)c(C(F)(F)F)c2)C(=O)N1c1ccc(Cl)c(NC(=O)OCCCO)c1 [Example 27, {2-chloro-5-[3-(4-cyano-3-trifluoromethylphenyl)-5,5-dimethyl-2,4-dioxoimidazolidin-1-yl]phenyl}-carbamic acid 3-hydroxypropyl ester] |  | >10 µM | 400 nM
CC1(C)C(=O)N(c2ccc(C#N)c(Cl)c2)C(=S)N1c1ccc(Cl)c(NC(=O)OCC(O)CO)c1 (stereo not shown) [Example 50, {2-chloro-5-[3-(4-cyano-3-chlorophenyl)-5,5-dimethyl-4-oxo-2-thioxoimidazolidin-1-yl]phenyl}-carbamic acid 2,3-dihydroxypropyl ester] | 300 nM | >10 µM | 
COC(=O)Nc1cc(N2C(=O)N(c3ccc(C#N)c(OC)c3)C(=O)C2(C)C)ccc1F [Example 30] |  | >10 µM | 500 nM
CN(C)CCCOC(=O)Nc1cc(N2C(=O)N(c3ccc(C#N)c(C(F)(F)F)c3)C(=O)C2(C)C)ccc1Cl [Example 32, {2-chloro-5-[3-(4-cyano-3-trifluoromethylphenyl)-5,5-dimethyl-2,4-dioxoimidazolidin-1-yl]phenyl}-carbamic acid 3-dimethylaminopropyl ester] | 500 nM | >10 µM | 
CCNC(=O)N1CCC(N2C(=S)N(c3ccc(C#N)c(Cl)c3)C(=O)C2(C)C)CC1 [Example 40, 4-[3-(1-ethylaminocarbonylpiperidin-4-yl)-4,4-dimethyl-5-oxo-2-thioxoimidazolidin-1-yl]-2-chlorobenzonitrile] |  | >10 µM | 
CCOC(=O)N1CCC(N2C(=S)N(c3ccc(C#N)c(Cl)c3)C(=O)C2(C)C)CC1 [Example 2, 4-[3-(1-ethoxycarbonylpiperidin-4-yl)-4,4-dimethyl-5-oxo-2-thioxoimidazolidin-1-yl]-2-chlorobenzonitrile] | 80 nM | 8 µM | 
CCCS(=O)(=O)N1CCC(N2C(=O)N(c3ccc(C#N)c(Cl)c3C)C(=O)C2(C)C)CC1 [Example 11, 4-[3-(1-propanesulfonylpiperidin-4-yl)-4,4-dimethyl-2,5-dioxoimidazolidin-1-yl]-2-chloro-3-methylbenzonitrile] |  | >10 µM | 300 nM
CC1(C)C(=O)N(c2ccc(C#N)c(C(F)(F)F)c2)C(=S)N1c1ccc(NC(=O)OCCO)nc1 [Example 60, {5-[3-(4-cyano-3-trifluoromethylphenyl)-5,5-dimethyl-4-oxo-2-thioxoimidazolidin-1-yl]pyridin-2-yl}carbamic acid 2-hydroxyethyl ester] |  | >10 µM | 300 nM
CC1(C)C(=O)N(c2ccc(C#N)c(Cl)c2)C(=S)N1c1ccc(Cl)c(NC(=O)OCCO)c1 [Example 47, {2-chloro-5-[3-(4-cyano-3-chlorophenyl)-5,5-dimethyl-4-oxo-2-thioxoimidazolidin-1-yl]phenyl}carbamic acid 2-hydroxyethyl ester] | 300 nM | >10 µM | 
CN1C(=S)N(c2ccc(C#N)c(C(F)(F)F)c2)C(=O)C1(C)C [Comparative Example 1, 4-(5-oxo-2-thioxo-3,4,4-trimethyl-1-imidazolidinyl)-2-trifluoromethylbenzonitrile, reference compound] |  | 8e-05 µM | 
CC1(C)C(=O)N(c2ccc(C#N)c(C(F)(F)F)c2)C(=S)N1C1CCN(C(=O)OCC(O)CO)CC1 (stereo not shown) [Example 45, 4-[3-(4-cyano-3-trifluoromethylphenyl)-5,5-dimethyl-4-oxo-2-thioxoimidazolidin-1-yl]piperidine-1-carboxylic acid 2,3-dihydroxypropyl ester] |  | >10 µM | 
CC(=O)NCCN1C(=S)N(c2ccc(C#N)c(C(F)(F)F)c2)C(=O)C1(C)C [Comparative Example 2, 4-[3′-(2″-N-acetylaminoethyl)-4′,4′-dimethyl-5′-oxo-2′-thioxo-1′-imidazolidinyl]-2-trifluoromethylbenzonitrile, reference compound] |  | 3 µM | 
CN(C)CCOC(=O)Nc1cc(N2C(=S)N(c3ccc(C#N)c(Cl)c3)C(=O)C2(C)C)ccc1Cl [Example 53, {2-chloro-5-[3-(4-cyano-3-chlorophenyl)-5,5-dimethyl-4-oxo-2-thioxoimidazolidin-1-yl]phenyl}-carbamic acid 2-dimethylaminoethyl ester] |  | >10 µM | 
CC1(C)C(=O)N(c2ccc(C#N)c(Cl)c2)C(=S)N1c1ccc2sc(NC(=O)NCC(O)CO)nc2c1 (stereo not shown) [Example 62, 1-{5-[3-(3-chloro-4-cyanophenyl)-5,5-dimethyl-4-oxo-2-thioxoimidazolidin-1-yl]benzothiazol-2-yl}-3-(2,3-dihydroxypropyl)urea] |  | >10 µM | 
CCNS(=O)(=O)N1CCC(N2C(=S)N(c3ccc(C#N)c(C(F)(F)F)c3)C(=O)C2(C)C)CC1 [Example 42, 4-[3-(1-ethylaminosulfonylpiperidin-4-yl)-4,4-dimethyl-5-oxo-2-thioxoimidazolidin-1-yl]-2-trifluoromethylbenzonitrile] |  |  | 700 nM
COc1cc(N2C(=O)C(C)(C)N(c3ccc(Cl)c(NC(=O)OCC(O)CO)c3)C2=S)ccc1C#N (stereo not shown) [Example 51, {2-chloro-5-[3-(4-cyano-3-methoxyphenyl)-5,5-dimethyl-4-oxo-2-thioxoimidazolidin-1-yl]phenyl}-carbamic acid 2,3-dihydroxypropyl ester] |  | >10 µM | 
CCNC(=O)N1CCC(N2C(=S)N(c3ccc(C#N)c(C(F)(F)F)c3)C(=O)C2(C)C)CC1 [Example 38, 4-[3-(1-ethylaminocarbonylpiperidin-4-yl)-4,4-dimethyl-5-oxo-2-thioxoimidazolidin-1-yl]-2-trifluoromethylbenzonitrile] |  | >10 µM | 
CC1(C)C(=O)N(c2ccc(C#N)c(C(F)(F)F)c2)C(=S)N1c1ccc(Cl)c(NC(=O)CCC(N)=O)c1 [Example 67, N-{2-chloro-5-[3-(4-cyano-3-trifluoromethylphenyl)-5,5-dimethyl-4-oxo-2-thioxoimidazolidin-1-yl]phenyl}-succinamide] |  | >10 µM | 
